We go through 23 compounds from patent publication US20230129359A1, “MUSCARINIC RECEPTOR 4 ANTAGONISTS AND METHODS OF USE” (Neurocrine Biosciences, Inc., priority 2020, published 2023).

The target of this test is T1, human M4 receptor (Homo sapiens, UniProt P08173).
T1 construct: expressed in transfected cells; host or cells: CHO cells
T1 sequence (P08173 1-479): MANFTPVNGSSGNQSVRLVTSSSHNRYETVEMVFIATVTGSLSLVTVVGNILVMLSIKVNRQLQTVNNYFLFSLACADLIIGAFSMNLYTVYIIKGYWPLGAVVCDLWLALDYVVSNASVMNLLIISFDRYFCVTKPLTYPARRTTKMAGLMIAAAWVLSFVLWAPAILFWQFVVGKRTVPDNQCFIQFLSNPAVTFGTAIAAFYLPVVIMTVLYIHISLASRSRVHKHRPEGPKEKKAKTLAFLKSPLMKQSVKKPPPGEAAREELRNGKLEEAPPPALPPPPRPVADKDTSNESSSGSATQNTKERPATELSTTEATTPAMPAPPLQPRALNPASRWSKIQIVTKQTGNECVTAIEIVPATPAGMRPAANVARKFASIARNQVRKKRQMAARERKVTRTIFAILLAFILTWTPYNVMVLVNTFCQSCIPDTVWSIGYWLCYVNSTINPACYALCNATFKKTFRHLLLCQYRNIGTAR
Nature of the test: Radioligand ([3H]N-methylscopolamine) binding assay, membranes from CHO cells expressing human M4 receptor. Particulars: Ki against human M4 receptor; membranes from CHO cells; tritiated N-methylscopolamine 1.5 nM; read-out: K. Summed up:
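Competition binding used CHO-cell membranes expressing human M4 with 1.5 nM [3H]N-methylscopolamine and twelve compound concentrations ([…]). Incubation was 90 minutes at 37 °C in 50 mM HEPES, 100 mM NaCl, 5 mM MgCl2, 1 mM EDTA, pH 7.4. Bound ligand was collected by filtration onto PEI-treated glass fibre for Ki.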
As for `C[C@@H]1CN(c2ncc(C(F)(F)F)cn2)C[C@H](C)N1C(=O)NC1CC2(C1)CN(Cc1ccc(OC(F)F)cc1)C2` [Compound 322, (2R,6S)-N-(2-{[4-(difluoromethoxy)phenyl]meth-yl}-2-azaspiro[3.3]heptan-6-yl)-2,6-dimethyl-4-[5-(trifluoromethyl)pyrimidin-2-yl]piperazine-1-carboxamide], the Ki lay in the range of 10 to 100 nM.

For the compound `C[C@@H]1CN(c2ccc([N+](=O)[O-])cn2)C[C@@H](C)N1C(=O)OC1CC2(C1)CN(Cc1ccccc1)C2` [Compound 164, 2-benzyl-2-azaspiro[3.3]heptan-6-yl (2R,6R)-2,6-dimethyl-4-(5-nitropyridin-2-yl)piperazine-1-carboxylate], the Ki was in the range of 100 to 1000 nM.

On to `C[C@@H]1CN(c2ncc(C(F)(F)F)c(N)n2)C[C@H](C)N1C(=O)OC1CC2(C1)CN(Cc1ccccc1)C2` [Compound 463, 2-benzyl-2-azaspiro[3.3]heptan-6-yl (2R,6S)-4-[4-amino-5-(trifluoromethyl)pyrimidin-2-yl]-2,6-dimethylpiperazine-1-carboxylate], for which the Ki was less than 10 nM.

On to `C[C@@H]1CN(c2nc3ccc(C(F)(F)F)cc3o2)C[C@H](C)N1C(=O)OC1CC2(C1)CN(Cc1ccccc1)C2` [Compound 428, 2-benzyl-2-azaspiro[3.3]heptan-6-yl (2R,6S)-2,6-dimethyl-4-[6-(trifluoromethyl)-1,3-benzoxazol-2-yl]piperazine-1-carboxylate], for which the Ki was less than 10 nM.

Take `C[C@@H]1CN(c2ncc(C(F)(F)F)cn2)C[C@@H](C)N1C(=O)NC1CC2(C1)CN(Cc1ccc(Cl)cc1)C2` [Compound 255, (2R,6R)-N-{2-[(4-chlorophenyl)methyl]-2-azaspiro[3.3]heptan-6-yl}-2,6-dimethyl-4-[5-(trifluoromethyl)pyrimidin-2-yl]piperazine-1-carboxamide]: the Ki fell in the range of 10 to 100 nM.

In the case of `C[C@@H]1CN(c2nc3ccc(F)cc3o2)[C@@H](C)CN1C(=O)OC1CC2(C1)CN(Cc1ccccc1)C2` [Compound 446, 2-benzyl-2-azaspiro[3.3]heptan-6-yl (2R,5S)-4-(6-fluoro-1,3-benzoxazol-2-yl)-2,5-dimethylpiperazine-1-carboxylate], the Ki lay in the range of 10 to 100 nM.

Consider `C[C@@H]1CN(c2nc3cc(F)c(F)cc3s2)[C@@H](C)CN1C(=O)OC1CC2(C1)CN(Cc1ccccc1)C2` [Compound 449, 2-benzyl-2-azaspiro[3.3]heptan-6-yl (2R,5S)-4-(5,6-difluoro-1,3-benzothiazol-2-yl)-2,56-dimethylpiperazine-1-carboxylate], for which the Ki was less than 10 nM.

As for `C[C@@H]1CN(c2ncc(C(F)F)cn2)C[C@H](C)N1C(=O)OC1CC2(C1)CN(Cc1ccc(F)cc1)C2` [Compound 467, 2-[(4-fluorophenyl)methyl]-2-azaspiro[3.3]heptan-6-yl (2R,6S)-4-[5-(difluoromethyl)pyrimidin-2-yl]-2,6-dimethylpiperazine-1-carboxylate], the Ki lay within 10 to 100 nM.

`C[C@@H]1CN(c2ncc(C3CC3)cn2)C[C@H](C)N1C(=O)OC1CC2(C1)CN(Cc1ccccc1)C2` [Compound 506, 2-benzyl-2-azaspiro[3.3]heptan-6-yl (2R,6S)-4-(5-cyclopropylpyrimidin-2-yl)-2,6-dimethylpiperazine-1-carboxylate]: the Ki is less than 10 nM.

On to `[2H]c1c([2H])c([2H])c(C([2H])([2H])N2CC3(CC(OC(=O)N4[C@H](C)CN(c5cnc(C(F)(F)F)cn5)C[C@@H]4C)C3)C2)c([2H])c1[2H]` [Compound 388, 2-[(^2H5)phenyl(^2H2)methyl]-2-azaspiro[3.3]heptan-6-yl (2R,6S)-2,6-dimethyl-4-[5-(trifluoromethyl)pyrazin-2-yl]piperazine-1-carboxylate], for which the Ki lay within 10 to 100 nM.

As to `C[C@H]1CN(c2ncc(C(F)(F)F)cn2)CCN1C(=O)NC1CC2(C1)CN(Cc1ccccc1)C2` [Compound 5, (2S)-N-{2-benzyl-2-azaspiro[3.3]heptan-6-yl}-2-methyl-4-[5-(trifluoromethyl)pyrimidin-2-yl]piperazine-1-carboxamide], the Ki lay in the range of 10 to 100 nM.

As for `COc1ccc2nc(N3C[C@@H](C)N(C(=O)OC4CC5(C4)CN(Cc4ccccc4)C5)[C@@H](C)C3)cnc2c1` [Compound 379, 2-benzyl-2-azaspiro[3.3]heptan-6-yl (2R,6S)-4-(6-methoxyquinoxalin-2-yl)-2,6-dimethylpiperazine-1-carboxylate], the Ki fell in the range of 10 to 100 nM.

As to `C[C@@H]1CN(c2ccc(OC(F)(F)F)c(C#N)c2)CCN1C(=O)NC1CC2(C1)CN(Cc1ccccc1)C2` [Compound 13, (2R)-N-{2-benzyl-2-azaspiro[3.3]heptan-6-yl}-4-[3-cyano-4-(trifluoromethoxy)phenyl]-2-methylpiperazine-1-carboxamide], the Ki is less than 10 nM.

In the case of `C[C@@H]1CN(c2nc3ccc(C#N)cc3s2)[C@@H](C)CN1C(=O)OC1CC2(C1)CN(Cc1ccccc1)C2` [Compound 435, 2-benzyl-2-azaspiro[3.3]heptan-6-yl (2R,5S)-4-(6-cyano-1,3-benzothiazol-2-yl)-2,5-dimethylpiperazine-1-carboxylate], the Ki lay within 100 to 1000 nM.

For the compound `C[C@@H]1CN(c2cnc(C(F)(F)F)cn2)[C@@H](C)CN1C(=O)OC1CC2(C1)CN(Cc1ccc(S(C)(=O)=O)cc1)C2` [Compound 503, 2-[(4-methanesulfonylphenyl)methyl]-2-azaspiro[3.3]heptan-6-yl (2R,5S)-2,5-dimethyl-4-[5-(trifluoromethyl)pyrazin-2-yl]piperazine-1-carboxylate], the Ki was 100 to 1000 nM.

Take `O=C(OC1CC2(C1)CN(Cc1ccccc1)C2)N1CC2COCC(C1)N2c1cnc(C(F)(F)F)cn1` [Compound 496, 2-benzyl-2-azaspiro[3.3]heptan-6-yl 9-[5-(trifluoromethyl)pyrazin-2-yl]-3-oxa-7,9-diazabicyclo[3.3.1]nonane-7-carboxylate]: the Ki fell in the range of 100 to 1000 nM.

Take `C[C@@H]1CN(c2ncc3cc(F)ccc3n2)[C@@H](C)CN1C(=O)OC1CC2(C1)CN(Cc1ccccc1)C2` [Compound 484, 2-benzyl-2-azaspiro[3.3]heptan-6-yl (2R,5S)-4-(6-fluoroquinazolin-2-yl)-2,5-dimethylpiperazine-1-carboxylate]: the Ki was less than 10 nM.

For `C[C@@H]1CN(c2ncc(C(F)(F)F)cn2)C[C@H](C)N1C(=O)NC1CC2(C1)CN(Cc1cccnc1Cl)C2` [Compound 291, (2R,6S)-N-{2-[(2-chloropyridin-3-yl)methyl]-2-azaspiro[3.3]heptan-6-yl}-2,6-dimethyl-4-[5-(trifluoromethyl)pyrimidin-2-yl]piperazine-1-carboxamide], the Ki was in the range of 100 to 1000 nM.

For the compound `COc1cc(N2C[C@@H](C)N(C(=O)OC3CC4(C3)CN(Cc3ccccc3)C4)[C@@H](C)C2)ccc1C#N` [Compound 526, 2-benzyl-2-azaspiro[3.3]heptan-6-yl (2R,6S)-4-(4-cyano-3-methoxyphenyl)-2,6-dimethylpiperazine-1-carboxylate], the Ki was in the range of 100 to 1000 nM.

For `C[C@@H]1CN(c2ncc(C(F)(F)F)cn2)CCN1C(=O)OC1CC2(C1)CN(Cc1ccccc1)C2` [Compound 132, 2-benzyl-2-azaspiro[3.3]heptan-6-yl (2R)-2-methyl-4-[5-(trifluoromethyl)pyrimidin-2-yl]piperazine-1-carboxylate], the Ki was less than 10 nM.

Regarding `C[C@@H]1CN(c2ncc(C(F)(F)F)cn2)C[C@H](C)N1C(=O)OC1(C)CC2(CN(Cc3ccccc3)C2)C1` [Compound 352, 2-benzyl-6-methyl-2-azaspiro[3.3]heptan-6-yl (2R,6S)-2,6-dimethyl-4-[5-(trifluoromethyl)pyrimidin-2-yl]piperazine-1-carboxylate], the Ki lay in the range of 100 to 1000 nM.

Regarding `C[C@@H]1CN(c2ncc(C(F)F)cn2)C[C@H](C)N1C(=O)OC1CC2(C1)CN(Cc1ccccc1)C2` [Compound 464, 2-benzyl-2-azaspiro[3.3]heptan-6-yl (2R,6S)-4-[5-(difluoromethyl)pyrimidin-2-yl]-2,6-dimethylpiperazine-1-carboxylate], the Ki was in the range of 10 to 100 nM.

`C[C@@H]1CN(c2nc3ccc(C(F)(F)F)cc3s2)C[C@H](C)N1C(=O)OC1CC2(C1)CN(Cc1ccc(F)cc1)C2` [Compound 384, 2-[(4-fluorophenyl)methyl]-2-azaspiro[3.3]heptan-6-yl (2R,6S)-2,6-dimethyl-4-[6-(trifluoromethyl)-1,3-benzothiazol-2-yl]piperazine-1-carboxylate]: the Ki is less than 10 nM.
